Results as given in US11207315B2, “Emetine compounds for treatment and prevention of flavivirus infection” (FLORIDA STATE UNIVERSITY RESEARCH FOUNDATION, INC., priority 2017, dated 2021).
pIC50: −log10 of the molar value. Where a name gives a salt, the structure may show the parent alone.

Tests used:
ZIKV [1] = assay: serum viral load (ZIKV NS1 ELISA) in ZIKV-challenged mice; type: in vivo, Ifnar1−/− mice; details: for decrease in serum viral load: serum at day 3; for reduction in serum viral load: until day 3
Protocol: (§1) FIG. 8. Zika virus load estimation in mouse serum following emetine treatment. Serum was separated. NS1 protein was estimated using ZIKV-NS1 ELISA kit (Biofront, Tallahassee, Fla.) as per the manufacturer's protocol. Briefly, 5 μl of the serum was lysed with equal volume of lysis buffer for 30 min at 37° C. A 1:900 dilution of the serum was done using sample dilution buffer and added to ELISA plates. Reactions were quantified using HRP conjugated antibody and TMB. Absorbance was taken at 450 nm after adding the stop solution. Statistical analysis was done using the Mann-Whitney ANOVA. *p<0.05, **p<0.01, ***p<0.001.
as §1, with “9.” for “8.”, “treatment before and after Zika virus challenge.” for “treatment.”, “1:300” for “1:900”
NS1 ELISA. The anti-ZIKV NS1 ELISA (ZKV-NS1-EK) was obtained from BioFront Technologies (Tallahassee, Fla.) and used according to the manufacturer's protocol.
Ifnar1−/− mice (7-8 wk old, male and female, Jackson Lab) were dosed (i.p) with Emetine 1 mg/kg/day (n=6), 2 mg/kg/day (n=8) or saline (Vehicle control, n=8) starting at 24 hours prior to challenging with ZIKV (10^3, Focal forming unit (FFU)) on day 0. Drug was continued until day 6. At peak viremia (day 3), a blood sample was taken from the tail vein and serum was separated and stored at −70° C. till further analysis. The body weight were monitored twice daily until day 10. Mice reaching humane end points were euthanized. With emetine treatment, there was a 30% and 37% decrease in serum viral load with 1 mg/kg and 2 mg/kg treatment, respectively.
(§2) Ifnar1−/− mice (8 wk old, male and female) were dosed with Emetine 2 mg/kg/day i.p. starting at 24 hours prior (n=8) or 24 after (n=7) the challenging with ZIKV on day 0. Drug was continued till day 3. Mice were euthanized, and blood and liver tissue were collected.

ZIKV (three strains) [2] = assay: infectious ZIKV production from SNB-19 cells, focus-forming unit assay on Vero cells; type: cell-based; details: Zika virus, for each of three ZIKV strains
Protocol: FIGS. 1A-B. Antiviral activity of emetine against ZIKV infection. ZIKV production from human glioblastoma SNB-19 cells treated with increasing concentrations of emetine. 24 hours post-infection, supernatants from SNB-19 cells were titrated onto naïve Vero cells plated in a monolayer in 96-well plates for infectious focus-forming unit assay as previously described and focus forming units quantified.
(§3) IC50 for each strain is ≤˜10 nM.
Cell line cultures. The glioblastoma SNB-19 cell line (part of the National Cancer Institute 60 human tumor cell line) was a gift from Dr. David Meckes (Florida State University, Tallahassee, Fla.). SNB-19 cells were maintained at 37° C. in 5% CO2 in […], 1× penicillin/streptomycin, and 10% fetal bovine serum (Invitrogen). The Aedes albopictus C6/36 cell line (ATCC) was maintained at 28° C. in 5% CO2.
Preparation of ZIKV and cell infection. The MR766-ZIKV stock with the titer of 1×10^5 Tissue Culture Infective Dose (TCID)/ml in the form of culture fluid from an infected rhesus Macaca cell line LLC-MK2, was originally obtained from ZeptoMetrix (Buffalo, N.Y.). The FSS13025-ZIKV strain was obtained from Drs. Robert Tesh and Pei-Yong Shi (University of Texas Medical Branch, Galveston, Tex.). […] C6/36-amplified ZIKV titer was determined by infecting Vero cells for 48 hours with a methyl-cellulose overlay and analyzed for focus-forming units per mL (FFU/ml). […]

PRVABC59-ZIKV = assay: time of addition: drug added 1 hour prior to or 4 hours post infection, NS1 Western blot and ZIKV-ENV IF staining; type: cell-based, Zika virus; details: added before or after infection; 1 μM
Protocol: as §3
Drug (emetine) was added at 1 μM either 1-hour prior to infection with PRVABC59-ZIKV, or 4-hours post infection with PRVABC59-ZIKV.
FIGS. 6A-B show IF staining of ZIKV-ENV Vero cells after a 24-hour infection. Drug was added at 1 μM either 1-hour prior to infection with PRVABC59-ZIKV, or 4-hours post infection with PRVABC59-ZIKV.
Immunocytochemistry. Cells were fixed with 4% paraformaldehyde (Sigma) for 15 min at room temperature. Samples were permeabilized and blocked with 0.25% Triton X-100 (Sigma) and 10% donkey or goat serum in PBS for 20 min as previously described (Chiang et al., 2011; [41]; Yoon et al., 2014). Samples were then incubated with primary antibodies at 4° C. overnight, followed by multiple PBST washes and incubation with secondary antibodies for 1 h at room temperature. Slides were mounted using VECTASHIELD with DAPI (Vectorlabs, Burlingame, Calif.). The following primary antibodies were used: anti-flavivirus group antigen (clone D1-4G2-4-15; mouse; 1:500; Millipore), and anti-cleaved caspase-3 ([…]; Rabbit; 1:500; Cell Signaling Technology). Antibodies were prepared in PBS containing 0.25% Triton X-100 and 10% donkey serum. Images were taken by Zeiss LSM 700 and 880 confocal microscopes, Olympus BX61, or Zeiss Axiovert 200M microscope.
Western blot. […]

ZIKV (three strains) [3] = assay: immunofluorescence staining and quantification of ZIKV positive SNB-19 cells; type: cell-based, Zika virus; details: one of three ZIKV strains; emetine at 0.01, 0.1, or 1 μM
Protocol: Immunofluorescence (IF) staining (FIG. 2A) and quantification (FIG. 2B) of ZIKV positive SNB-19 cells following infection with one of three ZIKV strains and treatment with emetine at 0.01, 0.1, or 1 μM. Emetine is effective against all three ZIKV strains tested.
Preparation of ZIKV and cell infection. The MR766-ZIKV stock with the titer of 1×10^5 Tissue Culture Infective Dose (TCID)/ml in the form of culture fluid from an infected rhesus Macaca cell line LLC-MK2, was originally obtained from ZeptoMetrix (Buffalo, N.Y.). The FSS13025-ZIKV strain was obtained from Drs. Robert Tesh and Pei-Yong Shi (University of Texas Medical Branch, Galveston, Tex.). The PRVABC59 strain was obtained from ATCC (Manassas, Va.). Original viral stocks were then amplified in Aedes albopictus clone C6/36 cells. Briefly, C6/36 cells were inoculated with viral inoculum for one hour at 28° C. in low volume of media (3 ml per T-75 flask), with rocking every 15 minutes, before addition of 17 ml media. Viral inoculated cells were incubated at 28° C. for 6-7 days before harvesting of supernatant. C6/36-amplified ZIKV titer was determined by infecting Vero cells for 48 hours with a methyl-cellulose overlay and analyzed for focus-forming units per mL (FFU/ml). In mock infections, an equal volume of spent uninfected C6/36 culture medium was used. […]

HEK293 cells = assay: Toxicity IC50 (cell-killing activity) in the compound screen; type: cell-based, Human
ZIKV [4] = assay: liver viral load (NS1 gene expression by real time PCR) in ZIKV-challenged mice; type: in vivo, Ifnar1−/− mice; details: until day 3
Protocol: FIG. 10. Zika virus load estimation in mouse liver following emetine treatment before and after Zika virus challenge. From 30 mg of liver tissue stored in RNAlater (Qiagen), total RNA was isolated using RNeasy mini kit (Qiagen) and converted to cDNA. Viral NS1 gene expression was estimated by real time PC Relative expression of the NS1 gene was calculated using ZIKV-NS1 specific primers and GAPDH primers. Statistical analysis was done using the Mann-Whitney ANOVA. *p<0.05, **p<0.01, ***p<0.001.
as §2

[5] = 2 mg/kg i.p. starting 24 hours after ZIKV challenge
[6] = 2 mg/kg i.p. starting 24 hours prior to ZIKV challenge

| Compound | decrease in serum viral load (ZIKV [1]; 1 mg/kg/day i.p. from 24 hours prior to challenge) [%] | decrease in serum viral load (ZIKV [1]; 2 mg/kg/day i.p. from 24 hours prior to challenge) [%] | pIC50 (ZIKV (three strains) [2]) | effect on ZIKV infection by time of addition (PRVABC59-ZIKV) | ZIKV positive SNB-19 cells (IF) (ZIKV (three strains) [3]) | Tox IC50 (HEK293 cells) | reduction in serum viral load (ZIKV [1]; [5]) [%] | reduction in serum viral load (ZIKV [1]; [6]) [%] | reduction in liver viral load (ZIKV [4]; [5]) [%] | reduction in liver viral load (ZIKV [4]; [6]) [%] |
| --- | --- | --- | --- | --- | --- | --- | --- | --- | --- | --- |
| CC[C@H]1CN2CCc3cc(OC)c(OC)cc3[C@@H]2C[C@@H]1C[C@H]1NCCc2cc(OC)c(OC)cc21 [Emetine, emetine] | 30 | 37 | ≥ 8.00 | effective against ZIKV infection when added before or after infection | reduces ZIKV infection in a dosage dependent manner | No | – | – | – | – |
| CC[C@H]1CN2CCc3cc(OC)c(OC)cc3[C@@H]2C[C@@H]1C[C@H]1NCCc2cc(OC)c(OC)cc21 [emetine dihydrochloride] | – | – | – | – | – | – | 32 | 55 | 35 | 42 |
